Measured values as given in BigSolDB 2.1.

O=C1N2CN3C(=O)N4CN5C(=O)N6CN7C(=O)N8CN9C(=O)N%10CN%11C(=O)N%12CN1C1C2N2CN%13C(=O)N(CN%14C(=O)N(CN%15C(=O)N(CN%16C(=O)N(CN%17C(=O)N(CN1C2=O)C%12C%11%17)C%10C9%16)C8C7%15)C6C5%14)C4C3%13 (stereo not drawn)
solubility (mole fraction) (in water, 293.15 K): 0.00231 | solubility (mole fraction) (in water, 303.15 K): 0.0027 | solubility (mole fraction) (in water, 313.15 K): 0.00336 | solubility (mole fraction) (in water, 323.15 K): 0.00403 | solubility (mole fraction) (in water, 333.15 K): 0.00481 | solubility (mole fraction) (in water, 343.15 K): 0.00573 | solubility (mole fraction) (in water, 353.15 K): 0.00662

OCCCCCCO
solubility (mole fraction) (in ethyl acetate, 278.15 K): 0.0148 | solubility (mole fraction) (in ethyl acetate, 283.15 K): 0.0274 | solubility (mole fraction) (in ethyl acetate, 288.15 K): 0.0387 | solubility (mole fraction) (in ethyl acetate, 293.15 K): 0.0512 | solubility (mole fraction) (in ethyl acetate, 298.15 K): 0.0834

CC(=O)OCC(=O)[C@@]12N=C(C)O[C@@H]1C[C@H]1[C@@H]3CCC4=CC(=O)C=C[C@]4(C)[C@H]3[C@@H](O)C[C@@]12C
solubility (mole fraction) (in acetone, 303.15 K): 0.00721 | solubility (mole fraction) (in ethanol, 303.15 K): 0.0024 | solubility (mole fraction) (in ethyl acetate, 303.15 K): 0.00399 | solubility (mole fraction) (in isopropanol, 303.15 K): 0.00204

COc1cc(/C=C/C(=O)CC(=O)/C=C/c2ccc(O)c(OC)c2)ccc1O
solubility (mole fraction) (in water, 298.15 K): 1.5e-07 | solubility (mole fraction) (in water, 303.15 K): 1.7e-07 | solubility (mole fraction) (in water, 308.15 K): 1.9e-07 | solubility (mole fraction) (in water, 313.15 K): 2e-07 | solubility (mole fraction) (in water, 318.15 K): 2.2e-07

CCCCCC
solubility (mole fraction) (in water, 280.8 K): 3.1e-06 | solubility (mole fraction) (in water, 295.5 K): 2.7e-06

Cc1nc2n(c(=O)c1CCN1CCC(c3noc4cc(F)ccc34)CC1)CCCC2
solubility (mole fraction) (in water, 298.15 K): 1e-07 | solubility (mole fraction) (in water, 303.15 K): 1e-07 | solubility (mole fraction) (in water, 308.15 K): 2e-07 | solubility (mole fraction) (in water, 313.15 K): 2e-07 | solubility (mole fraction) (in water, 318.15 K): 3e-07 | solubility (mole fraction) (in water, 323.15 K): 4e-07 | solubility (mole fraction) (in water, 328.15 K): 5e-07 | solubility (mole fraction) (in water, 333.15 K): 6e-07

C=C1CC[C@H](O)C/C1=C/C=C1\CCC[C@]2(C)[C@@H]([C@H](C)CCCC(C)C)CC[C@@H]12
solubility (mole fraction) (in water, 273.2 K): 1.97e-07 | solubility (mole fraction) (in water, 278.2 K): 2.95e-07 | solubility (mole fraction) (in water, 283.2 K): 4.38e-07 | solubility (mole fraction) (in water, 288.2 K): 5.71e-07 | solubility (mole fraction) (in water, 298.2 K): 1.06e-06

O=c1cc[nH]c(=O)[nH]1
solubility (mole fraction) (in water, 298.15 K): 0.000743

Oc1cc(O)c2cc1Cc1cc(c(O)cc1O)Cc1cc(c(O)cc1O)Cc1cc(c(O)cc1O)C2
solubility (mole fraction) (in water, 278.15 K): 3.22e-06 | solubility (mole fraction) (in water, 283.15 K): 4.29e-06 | solubility (mole fraction) (in water, 288.15 K): 4.86e-06 | solubility (mole fraction) (in water, 293.15 K): 6.26e-06 | solubility (mole fraction) (in water, 298.15 K): 6.59e-06 | solubility (mole fraction) (in water, 303.15 K): 7.16e-06 | solubility (mole fraction) (in water, 308.15 K): 7.68e-06

c1ccc(-c2cnc(-c3ccc(-c4ncc(-c5ccccc5)o4)cc3)o2)cc1
solubility (mole fraction) (in acetone, 298.15 K): 0.00013 | solubility (mole fraction) (in ethanol, 298.15 K): 8.43e-06 | solubility (mole fraction) (in water, 298.15 K): 7.3e-10

C/C=C/C=C/C(=O)O
solubility (mole fraction) (in n-propanol, 283.15 K): 0.0201 | solubility (mole fraction) (in n-propanol, 288.15 K): 0.0283 | solubility (mole fraction) (in n-propanol, 293.15 K): 0.0389 | solubility (mole fraction) (in n-propanol, 298.15 K): 0.0519 | solubility (mole fraction) (in n-propanol, 303.15 K): 0.0677 | solubility (mole fraction) (in n-propanol, 308.15 K): 0.0851 | solubility (mole fraction) (in n-propanol, 313.15 K): 0.0938 | solubility (mole fraction) (in n-propanol, 318.15 K): 0.129 | solubility (mole fraction) (in n-propanol, 323.15 K): 0.151

C1CCCC1
solubility (mole fraction) (in water, 276.5 K): 4.62e-05 | solubility (mole fraction) (in water, 282.2 K): 4.29e-05 | solubility (mole fraction) (in water, 296.2 K): 4.17e-05

O=[N+]([O-])c1ccc(N/N=C/c2ccc[nH]2)cc1
solubility (mole fraction) (in water, 298.15 K): 1.73e-07

O=[N+]([O-])c1ccc(N/N=C/c2ccco2)cc1
solubility (mole fraction) (in water, 298.15 K): 1.72e-07

COc1cc(/C=C/C(=O)O)cc(OC)c1O
solubility (mole fraction) (in DMSO, 298.15 K): 0.147 | solubility (mole fraction) (in DMSO, 303.15 K): 0.149 | solubility (mole fraction) (in DMSO, 308.15 K): 0.152 | solubility (mole fraction) (in DMSO, 313.15 K): 0.155 | solubility (mole fraction) (in DMSO, 318.15 K): 0.158 | solubility (mole fraction) (in ethylene glycol, 298.15 K): 0.00586 | solubility (mole fraction) (in ethylene glycol, 303.15 K): 0.0066 | solubility (mole fraction) (in ethylene glycol, 308.15 K): 0.0075 | solubility (mole fraction) (in ethylene glycol, 313.15 K): 0.00848 | solubility (mole fraction) (in ethylene glycol, 318.15 K): 0.0094

O=c1[nH]cc(F)c(=O)[nH]1
solubility (mole fraction) (in THF, 283.15 K): 0.000217 | solubility (mole fraction) (in THF, 288.15 K): 0.000286 | solubility (mole fraction) (in THF, 293.15 K): 0.000359 | solubility (mole fraction) (in THF, 298.15 K): 0.000471 | solubility (mole fraction) (in THF, 303.15 K): 0.000618 | solubility (mole fraction) (in THF, 308.15 K): 0.000763 | solubility (mole fraction) (in THF, 313.15 K): 0.000961 | solubility (mole fraction) (in THF, 318.15 K): 0.0012 | solubility (mole fraction) (in THF, 323.15 K): 0.00151 | solubility (mole fraction) (in water, 298.15 K): 0.00248

C(=N\Nc1ccccc1)/c1cccs1
solubility (mole fraction) (in water, 298.15 K): 5.19e-07

C1=Cc2nc1c(-c1ccccc1)c1ccc([nH]1)c(-c1ccccc1)c1nc(c(-c3ccccc3)c3ccc([nH]3)c2-c2ccccc2)C=C1
solubility (mole fraction) (in ethanol, 303.2 K): 1.76e-06 | solubility (mole fraction) (in ethanol, 313.2 K): 2.31e-06 | solubility (mole fraction) (in ethanol, 323.2 K): 3.06e-06 | solubility (mole fraction) (in ethanol, 333.2 K): 4.01e-06

CN1C(C(=O)Nc2ccccn2)=C(O)c2ccccc2S1(=O)=O
solubility (mole fraction) (in ethanol, 298.15 K): 0.000214 | solubility (mole fraction) (in water, 298.15 K): 4.01e-07

C[C@@H](O)[C@H]1C(=O)N2C(C(=O)[O-])=C(SC3Cn4cnc[n+]4C3)[C@H](C)[C@H]12 (stereo partly drawn)
solubility (mole fraction) (in water, 283.15 K): 0.000323 | solubility (mole fraction) (in water, 288.15 K): 0.000367 | solubility (mole fraction) (in water, 293.15 K): 0.000413 | solubility (mole fraction) (in water, 298.15 K): 0.000463 | solubility (mole fraction) (in water, 303.15 K): 0.000521 | solubility (mole fraction) (in water, 308.15 K): 0.000584 | solubility (mole fraction) (in water, 313.15 K): 0.000649 | solubility (mole fraction) (in water, 318.15 K): 0.000721 | solubility (mole fraction) (in water, 323.15 K): 0.000807

CN1C(C(=O)Nc2ccccn2)=C(O)c2sc(Cl)cc2S1(=O)=O
solubility (mole fraction) (in ethanol, 298.15 K): 1.3e-05 | solubility (mole fraction) (in water, 298.15 K): 3e-06

O=[N+]([O-])c1ccc(N/N=C/c2cccs2)c([N+](=O)[O-])c1
solubility (mole fraction) (in water, 298.15 K): 7e-09

NCCS(=O)(=O)O
solubility (mole fraction) (in water, 298.15 K): 0.0143 | solubility (mole fraction) (in water, 303.15 K): 0.0168 | solubility (mole fraction) (in water, 308.15 K): 0.0199 | solubility (mole fraction) (in water, 313.15 K): 0.0231 | solubility (mole fraction) (in water, 318.15 K): 0.0269

O=C1c2ccccc2C(=O)N1O
solubility (mole fraction) (in acetic acid, 293.2 K): 0.00298 | solubility (mole fraction) (in acetic acid, 303.2 K): 0.00394 | solubility (mole fraction) (in acetic acid, 313.2 K): 0.00504 | solubility (mole fraction) (in acetic acid, 323.2 K): 0.00658 | solubility (mole fraction) (in acetic acid, 333.2 K): 0.00816 | solubility (mole fraction) (in acetic acid, 343.2 K): 0.0103 | solubility (mole fraction) (in acetic acid, 353.2 K): 0.0127 | solubility (mole fraction) (in acetic acid, 363.2 K): 0.0155

O=C1Nc2ccccc2C1=O
solubility (mole fraction) (in PEG-400, 298.15 K): 0.0985 | solubility (mole fraction) (in PEG-400, 308.15 K): 0.109 | solubility (mole fraction) (in PEG-400, 318.15 K): 0.121 | solubility (mole fraction) (in PEG-400, 328.15 K): 0.132 | solubility (mole fraction) (in PEG-400, 338.15 K): 0.145 | solubility (mole fraction) (in transcutol, 298.15 K): 0.52 | solubility (mole fraction) (in transcutol, 308.15 K): 0.536 | solubility (mole fraction) (in transcutol, 318.15 K): 0.557 | solubility (mole fraction) (in transcutol, 328.15 K): 0.579 | solubility (mole fraction) (in transcutol, 338.15 K): 0.594

Cc1c(O)c(=O)ccn1C
solubility (mole fraction) (in NMP, 298.2 K): 0.002 | solubility (mole fraction) (in PEG-400, 298.2 K): 0.00864 | solubility (mole fraction) (in ethanol, 298.2 K): 0.0014 | solubility (mole fraction) (in ethylene glycol, 298.2 K): 0.00737 | solubility (mole fraction) (in propylene glycol, 298.2 K): 0.00563
